Assay results taken from paper PMC12654176 (Microorganisms, 2025).
pIC50: −log10 of the molar value.

Tested on: H10NX AIVs NA activity
Format: biochemical

CC(=O)N[C@H]1[C@H]([C@H](O)[C@H](O)CO)OC(C(=O)O)=C[C@@H]1N=C(N)N [Zanamivir, zanamivir]
susceptibility of H10NX isolates to the drug (phenotypic assay): sensitive
pIC50 (read-out: mean IC50 values, range over the H10NX isolates tested): 8.89 to 9.15
